This is an account of results in ChEMBL document CHEMBL3734667 (Bioorg Med Chem, 2015).

Each structure is given as a SMILES string. A value given as a limit tells only on which side of the number the result lay.

The test system of data set [1] is Vaccinia virus. Kind of data set: Antiviral activity against Vaccinia virus. It is filed as functional, organism-based. As to conditions: Orthopoxvirus vaccinia.
A short description of data set [2]: Cytotoxicity against MDBK cells assessed as cell viability after 48 to 96 hrs by MTT assay. As to conditions: cattle. The format is cell-based, Bos taurus. On the technique in general: Tetrazolium dyes change colour on reduction, which living cells bring about.
Data set [3] can be described thus: Cytotoxicity against BHK cells assessed as cell viability after 48 to 96 hrs by MTT assay. It is filed as cell-based, Mesocricetus auratus. As to conditions: hamster.
The subject of data set [4] is Coxsackievirus B5. Briefly: Antiviral activity against human CVB5 infected in african green monkey Vero76 cells assessed as inhibition of virus-induced cytopathogenicity after 3 days by plaque reduction assay. The format is functional, organism-based. As to conditions: Enterovirus B, Vero 76, 72 h. In general terms: Protection from cytopathic effect is a common read-out in antiviral testing.

A short description of data set [5]: Cytotoxicity against human MT4 cells assessed as cell viability after 96 hrs by MTT assay. It is filed as cell-based.
In data set [6] the test system is Yellow fever virus. Kind of data set: Antiviral activity against YFV infected in BHK-21 cells assessed as inhibition of virus-induced cytopathogenicity after 3 to 4 days by MTT assay. The format is functional, organism-based.
Data set [7] concerns Human immunodeficiency virus 1. Briefly: Antiviral activity against HIV-1 infected in MT4 cells assessed as inhibition of virus-induced cytopathogenicity after 4 days by MTT assay. The format is functional, organism-based. Particulars: Human immunodeficiency virus 1, MT4, 96 h.
Data set [8] relates to Bovine viral diarrhea virus 1. Kind of data set: Antiviral activity against BVDV infected in MDBK cells assessed as inhibition of virus-induced cytopathogenicity after 3 to 4 days by MTT assay. It is filed as functional, organism-based. As to conditions: Bovine viral diarrhea virus isolates and strains.
The subject of data set [9] is Human orthopneumovirus. Kind of data set: Antiviral activity against human RSV infected in african green monkey Vero76 cells assessed as inhibition of virus-induced cytopathogenicity after 5 days by plaque reduction assay. It is filed as functional, organism-based. Particulars: human respiratory syncytial virus, Vero 76, 120 h.
Data set [10] has as its system Vesicular stomatitis virus. Kind of data set: Antiviral activity against VSV. It is filed as functional, organism-based.
Data set [11] in a line: Cytotoxicity against african green monkey Vero 76 cells assessed as cell viability after 48 to 96 hrs by crystal violet staining method. It is filed as cell-based. Particulars: chlorocebus sabaeus.

For `COc1cc(C(=O)OCCn2nnc3ccccc32)cc(OC)c1OC`, the EC50 in data set [1], in data set [4], in [6], in data set [7], in [8] and in data set [9] was above 100 µM in each case. Moreover, the EC50 in data set [10] was above 100 µM. The 50% cytotoxic concentration (CC50) in data set [2] is 40 µM; in data set [3], 70 µM; in [11] it was 80 µM. Further, the CC50 at 96 h in [5] is 1.9 µM.

For the molecule `Cc1cc2nnn(C3CCCO3)c2cc1C` (stereo not drawn), the CC50 in [2] and in data set [3] was above 100 µM throughout. The CC50 at 96 h in [5] was above 100 µM. The EC50 in data set [6], in data set [7] and in [8] was above 100 µM throughout.

As to `COc1cc(/C=C/C(=O)OCCn2nc3ccccc3n2)cc(OC)c1OC`, the EC50 in data set [1], in data set [4], in [6], in [7], in [8] and in data set [9] was above 100 µM each time. Also, in data set [10], the EC50 was above 100 µM. For the same molecule, the CC50 in data set [2], in [3] and in data set [11] was above 100 µM each time. In addition, the half-maximal cytotoxic concentration (CC50) at 96 h in data set [5] was at least 100 µM.

For the molecule `COc1cc(/C=C/C(=O)OCCCn2nnc3ccccc32)cc(OC)c1OC`, the half-maximal effective concentration (EC50) in data set [1], in data set [4], in data set [6], in data set [7], in data set [8] and in data set [9] was above 100 µM each time. The same molecule yielded an EC50 in data set [10] above 100 µM. Moreover, the values for the CC50 in data set [2], in data set [3] and in data set [11] were 83 µM, above 100 µM and above 100 µM, respectively. Also, the CC50 at 96 h in data set [5] was above 100 µM.

As for `CN(C)c1cccc(C(=O)OCCn2nnc3ccccc32)c1`, the EC50 in data set [1], in data set [4], in [6], in data set [7], in data set [8] and in [9] was above 100 µM each time. In [10], this molecule yielded an EC50 above 100 µM. Also, the CC50 in data set [2] is at least 100 µM; in [3], above 100 µM; in [11] it was at least 100 µM. Besides, the CC50 at 96 h in [5] is 65 µM.

`COc1cc(C(=O)OCCCn2nc3ccccc3n2)cc(OC)c1OC`: the EC50 in [1], in data set [4], in [6], in data set [7], in data set [8] and in data set [9] was above 100 µM throughout. The concentration giving a half-maximal response (EC50) in data set [10] is above 100 µM. For the same molecule, the half-maximal cytotoxic concentration (CC50) in data set [2], in [3] and in data set [11] was above 100 µM throughout. For the same molecule, the CC50 at 96 h in data set [5] is above 100 µM.

As for `COc1cc(/C=C/C(=O)OCCn2nnc3ccccc32)cc(OC)c1OC`, the EC50 in [1], in [4], in data set [6], in data set [7], in [8] and in data set [9] was above 100 µM in each case. Further, in data set [10], the 50% effective concentration (EC50) is above 100 µM. Moreover, the half-maximal cytotoxic concentration (CC50) in data set [2] is 70 µM; in [3], above 100 µM; in data set [11] it was above 100 µM. In addition, in data set [5], the CC50 at 96 h is 45 µM.

For `CC(CC(=O)O)n1nc2ccc3ccccc3c2n1` (stereo not drawn), the EC50 in data set [1], in data set [4], in [6], in data set [7], in data set [8] and in data set [9] was above 100 µM each time. In addition, the EC50 in [10] was above 100 µM. Also, the CC50 in data set [2], in data set [3] and in [11] was above 100 µM each time. Also, the CC50 at 96 h in [5] is above 100 µM.

`NNC(=O)Cn1nnc2ccccc21`: the half-maximal effective concentration (EC50) in [1], in [4], in data set [6], in data set [7], in data set [8] and in [9] was above 100 µM throughout. In [10], this molecule gave an EC50 above 100 µM. The CC50 in data set [2], in data set [3] and in data set [11] was above 100 µM throughout. Also, the CC50 at 96 h in data set [5] is above 100 µM.

In the case of `CN(C)C(=O)Cn1nnc2ccccc21`, the EC50 in data set [1], in data set [4], in [6], in data set [7], in [8] and in data set [9] was above 100 µM throughout. This molecule gave an EC50 in [10] above 100 µM. Besides, the CC50 in data set [2], in [3] and in data set [11] was above 100 µM throughout. Also, the CC50 at 96 h in [5] was above 100 µM.

In the case of `Clc1cc2nn(C3CCCO3)nc2cc1Cl` (stereo not drawn), the CC50 in data set [2] and in data set [3] was above 100 µM in each case. Further, the CC50 at 96 h in [5] is above 100 µM. In addition, the EC50 in [6], in [7] and in data set [8] was above 100 µM in each case.

With `Clc1cc2nnn(C3CCCO3)c2cc1Cl` (stereo not drawn), the CC50 in data set [2] and in data set [3] was above 100 µM throughout. Further, in [5], the CC50 at 96 h was above 100 µM. Further, the EC50 in data set [6], in data set [7] and in data set [8] was above 100 µM in each case.

Regarding `CC(CC(=O)O)n1nnc2ccc([N+](=O)[O-])cc21` (stereo not drawn), the EC50 in data set [1], in data set [4], in data set [6], in data set [7], in data set [8] and in data set [9] was above 100 µM in each case. In addition, the concentration giving a half-maximal response (EC50) in data set [10] was above 100 µM. The half-maximal cytotoxic concentration (CC50) in [2], in data set [3] and in data set [11] was above 100 µM throughout. The CC50 at 96 h in [5] was above 100 µM.

Take `O=C(Cn1nnc2ccccc21)N1CCOCC1`: the concentration giving a half-maximal response (EC50) in data set [1], in [4], in data set [6], in data set [7], in data set [8] and in data set [9] was above 100 µM throughout. This molecule gave an EC50 in data set [10] above 100 µM. Also, the 50% cytotoxic concentration (CC50) in data set [2], in data set [3] and in data set [11] was above 100 µM throughout. Further, the half-maximal cytotoxic concentration (CC50) at 96 h in data set [5] was above 100 µM.

`CN(C)C(=O)Cn1nc2ccccc2n1`: the EC50 in data set [1], in data set [4], in [6], in data set [7], in [8] and in data set [9] was above 100 µM throughout. The molecule also yielded an EC50 in data set [10] above 100 µM. Besides, the CC50 in data set [2], in data set [3] and in [11] was above 100 µM each time. The CC50 at 96 h in data set [5] is above 100 µM.

`O=C(Cn1nc2ccccc2n1)N1CCOCC1`: the EC50 in data set [1], in data set [4], in data set [6], in [7], in data set [8] and in data set [9] was above 100 µM in each case. In data set [10], this molecule came in with an EC50 above 100 µM. Further, the CC50 in data set [2], in data set [3] and in data set [11] was above 100 µM in each case. In data set [5], the CC50 at 96 h is above 100 µM.

For the molecule `Clc1c(Cl)c(Cl)c2c(nnn2C2CCCO2)c1Cl` (stereo not drawn), the CC50 at 96 h in data set [5] came to 95 µM. Moreover, the EC50 in data set [7] is above 100 µM.

Consider `CC(CC(=O)O)n1nc2ccc([N+](=O)[O-])cc2n1` (stereo not drawn), for which the 50% effective concentration (EC50) in data set [1], in data set [4], in data set [6], in [7], in [8] and in [9] was above 100 µM in each case. Besides, the EC50 in [10] was above 100 µM. In addition, the CC50 in data set [2], in [3] and in data set [11] was above 100 µM in each case. Besides, the CC50 at 96 h in data set [5] was above 100 µM.

Regarding `NCCn1nnc2ccccc21`, the concentration giving a half-maximal response (EC50) in data set [1], in data set [4], in [6], in data set [7], in data set [8] and in data set [9] was above 100 µM in each case. The molecule also gave an EC50 in data set [10] above 100 µM. Moreover, the 50% cytotoxic concentration (CC50) in data set [2], in [3] and in data set [11] was above 100 µM each time. For the same molecule, the 50% cytotoxic concentration (CC50) at 96 h in [5] was above 100 µM.

Turning to `COc1cc(C(=O)OCCCn2nnc3ccccc32)cc(OC)c1OC`, the EC50 in data set [1], in [4], in data set [6], in data set [7], in data set [8] and in data set [9] was above 100 µM each time. Also, the EC50 in [10] was above 100 µM. The CC50 in [2] was at least 100 µM; in data set [3], above 100 µM; in data set [11], 100 µM. In addition, the CC50 at 96 h in data set [5] was above 100 µM.

With `CN1CCN(CCn2nnc3ccccc32)CC1`, the EC50 in data set [1], in data set [4], in data set [6], in data set [7], in [8] and in data set [9] was above 100 µM each time. The EC50 in data set [10] is above 100 µM. Besides, the CC50 in data set [2], in data set [3] and in data set [11] was above 100 µM in each case. In data set [5], the CC50 at 96 h is above 100 µM.

Consider `COc1cc(C(=O)OCCn2nc3ccccc3n2)cc(OC)c1OC`, for which the EC50 in data set [1], in data set [4], in data set [6], in data set [7], in data set [8] and in data set [9] was above 100 µM in each case. The EC50 in [10] is above 100 µM. Besides, the results for the 50% cytotoxic concentration (CC50) in data set [2], in data set [3] and in [11] were 6 µM, 26 µM and 1.6 µM, respectively. The cytotoxic concentration (CC50) at 96 h in [5] worked out at 0.3 µM.

A word on the EC50: it is the concentration at which the effect is half-maximal. The CC50 is the concentration that lowers cell viability or growth by half.
